From patent US12157741B2, “Macrocyclic inhibitors of DYRK1A” (DANA-FARBER CANCER INSTITUTE, INC., priority 2018, dated 2024)
Read-outs that look alike come from different tables or passages of the source.

How the values were obtained:
Type in all cases: binding
various enzymes [1] = biological target: various enzymes (Homo sapiens, UniProt Q9Y616); settings: compound 1 uM
Protocol: (§1) Ambit profiling was conducted in accordance with the manufacturer's instructions.

various enzymes [2] = biological target: various enzymes (Homo sapiens, UniProt Q32MK0); settings: compound 1 uM
Protocol: as §1

various enzymes [3] = biological target: various enzymes (Homo sapiens, UniProt Q9H4B4); settings: compound 1 uM
Protocol: as §1

various enzymes [4] = biological target: various enzymes (Homo sapiens, UniProt P15735); settings: compound 1 uM
Protocol: as §1

various enzymes [5] = biological target: various enzymes (Homo sapiens, UniProt Q99558); settings: compound 1 uM
Protocol: as §1

various enzymes [6] = biological target: various enzymes (Homo sapiens, UniProt P25098); settings: compound 1 uM
Protocol: as §1

various enzymes [7] = biological target: various enzymes (Homo sapiens, UniProt P11309); settings: compound 1 uM
various enzymes (Homo sapiens, UniProt P11309), sequence (P11309 whole entry): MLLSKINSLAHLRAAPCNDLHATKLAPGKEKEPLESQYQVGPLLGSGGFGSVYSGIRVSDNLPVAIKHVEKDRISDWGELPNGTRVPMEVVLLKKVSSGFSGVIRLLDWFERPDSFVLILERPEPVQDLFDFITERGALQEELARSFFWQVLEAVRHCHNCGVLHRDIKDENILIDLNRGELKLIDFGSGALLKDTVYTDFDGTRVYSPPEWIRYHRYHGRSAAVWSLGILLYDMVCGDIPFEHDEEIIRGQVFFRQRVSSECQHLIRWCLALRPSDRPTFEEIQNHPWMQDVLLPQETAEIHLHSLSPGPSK
Protocol: as §1

various enzymes [8] = biological target: T1, various enzymes (Homo sapiens, UniProt P36888, D835V, form not given)
T1 construct: other: FLT3(ITD, D835V); 1 uM; other: compound 1 uM
Protocol: as §1

various enzymes [9] = biological target: various enzymes (Homo sapiens, UniProt P36897); settings: compound 1 uM
various enzymes (Homo sapiens, UniProt P36897), sequence (P36897 34-503): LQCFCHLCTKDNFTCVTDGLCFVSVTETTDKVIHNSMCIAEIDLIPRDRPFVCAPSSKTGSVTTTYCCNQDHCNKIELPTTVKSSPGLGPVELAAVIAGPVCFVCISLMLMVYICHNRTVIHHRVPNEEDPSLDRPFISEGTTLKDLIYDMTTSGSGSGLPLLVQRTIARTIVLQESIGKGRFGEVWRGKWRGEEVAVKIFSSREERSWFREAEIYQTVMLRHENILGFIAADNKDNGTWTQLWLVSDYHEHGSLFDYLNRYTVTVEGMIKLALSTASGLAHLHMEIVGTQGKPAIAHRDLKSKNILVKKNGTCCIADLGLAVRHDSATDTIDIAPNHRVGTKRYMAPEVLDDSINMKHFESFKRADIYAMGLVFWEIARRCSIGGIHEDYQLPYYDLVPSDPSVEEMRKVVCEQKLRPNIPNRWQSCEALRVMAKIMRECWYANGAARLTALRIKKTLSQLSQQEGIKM
Protocol: as §1

various enzymes [10] = biological target: various enzymes (Homo sapiens, UniProt Q8TBX8); settings: compound 1 uM
Protocol: as §1

various enzymes [11] = biological target: various enzymes (Homo sapiens, UniProt P00533, L858R)
Protocol: as §1

various enzymes [12] = biological target: T2, various enzymes (Homo sapiens, UniProt Q96L34); settings: compound 1 uM
T2 sequence (Q96L34 1-752): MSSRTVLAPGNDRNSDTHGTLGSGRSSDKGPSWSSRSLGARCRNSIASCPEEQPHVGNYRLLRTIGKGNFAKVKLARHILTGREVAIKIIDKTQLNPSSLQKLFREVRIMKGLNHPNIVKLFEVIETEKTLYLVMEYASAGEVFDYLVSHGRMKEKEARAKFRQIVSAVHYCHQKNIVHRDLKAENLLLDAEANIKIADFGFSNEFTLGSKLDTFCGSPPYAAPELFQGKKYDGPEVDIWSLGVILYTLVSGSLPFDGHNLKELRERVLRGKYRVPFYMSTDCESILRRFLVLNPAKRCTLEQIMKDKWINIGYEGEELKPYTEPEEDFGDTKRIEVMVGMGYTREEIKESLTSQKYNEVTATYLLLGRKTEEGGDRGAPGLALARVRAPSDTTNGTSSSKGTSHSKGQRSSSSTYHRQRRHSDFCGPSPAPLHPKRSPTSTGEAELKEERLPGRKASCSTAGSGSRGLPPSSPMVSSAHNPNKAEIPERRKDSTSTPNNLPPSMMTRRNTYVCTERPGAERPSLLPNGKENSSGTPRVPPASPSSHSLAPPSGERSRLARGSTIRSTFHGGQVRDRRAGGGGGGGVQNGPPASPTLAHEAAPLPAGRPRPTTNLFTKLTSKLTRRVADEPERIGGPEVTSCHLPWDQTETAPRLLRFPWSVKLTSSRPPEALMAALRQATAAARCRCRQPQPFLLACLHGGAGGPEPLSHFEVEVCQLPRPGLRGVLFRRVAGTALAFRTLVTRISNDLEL
Protocol: as §1

various enzymes [13] = biological target: various enzymes (Homo sapiens, UniProt Q86Z02); settings: compound 1 uM
Protocol: as §1

various enzymes [14] = biological target: various enzymes (Homo sapiens, UniProt P49761); settings: compound 1 uM
various enzymes (Homo sapiens, UniProt P49761), sequence (P49761 whole entry): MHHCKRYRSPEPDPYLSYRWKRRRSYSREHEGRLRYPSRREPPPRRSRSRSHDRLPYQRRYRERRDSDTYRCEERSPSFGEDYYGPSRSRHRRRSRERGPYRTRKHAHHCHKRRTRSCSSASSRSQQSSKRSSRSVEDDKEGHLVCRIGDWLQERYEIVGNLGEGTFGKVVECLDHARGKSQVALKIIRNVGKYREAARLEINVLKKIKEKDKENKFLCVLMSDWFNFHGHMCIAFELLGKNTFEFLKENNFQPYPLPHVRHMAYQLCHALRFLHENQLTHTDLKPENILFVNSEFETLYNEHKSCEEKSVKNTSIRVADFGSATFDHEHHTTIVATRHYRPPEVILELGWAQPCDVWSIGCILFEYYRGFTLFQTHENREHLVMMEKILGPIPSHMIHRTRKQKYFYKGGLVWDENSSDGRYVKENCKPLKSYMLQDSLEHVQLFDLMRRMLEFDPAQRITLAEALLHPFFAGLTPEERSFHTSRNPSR
Protocol: as §1

various enzymes [15] = biological target: various enzymes (Homo sapiens, UniProt P10721); settings: compound 1 uM
various enzymes (Homo sapiens, UniProt P10721), sequence (P10721 26-976): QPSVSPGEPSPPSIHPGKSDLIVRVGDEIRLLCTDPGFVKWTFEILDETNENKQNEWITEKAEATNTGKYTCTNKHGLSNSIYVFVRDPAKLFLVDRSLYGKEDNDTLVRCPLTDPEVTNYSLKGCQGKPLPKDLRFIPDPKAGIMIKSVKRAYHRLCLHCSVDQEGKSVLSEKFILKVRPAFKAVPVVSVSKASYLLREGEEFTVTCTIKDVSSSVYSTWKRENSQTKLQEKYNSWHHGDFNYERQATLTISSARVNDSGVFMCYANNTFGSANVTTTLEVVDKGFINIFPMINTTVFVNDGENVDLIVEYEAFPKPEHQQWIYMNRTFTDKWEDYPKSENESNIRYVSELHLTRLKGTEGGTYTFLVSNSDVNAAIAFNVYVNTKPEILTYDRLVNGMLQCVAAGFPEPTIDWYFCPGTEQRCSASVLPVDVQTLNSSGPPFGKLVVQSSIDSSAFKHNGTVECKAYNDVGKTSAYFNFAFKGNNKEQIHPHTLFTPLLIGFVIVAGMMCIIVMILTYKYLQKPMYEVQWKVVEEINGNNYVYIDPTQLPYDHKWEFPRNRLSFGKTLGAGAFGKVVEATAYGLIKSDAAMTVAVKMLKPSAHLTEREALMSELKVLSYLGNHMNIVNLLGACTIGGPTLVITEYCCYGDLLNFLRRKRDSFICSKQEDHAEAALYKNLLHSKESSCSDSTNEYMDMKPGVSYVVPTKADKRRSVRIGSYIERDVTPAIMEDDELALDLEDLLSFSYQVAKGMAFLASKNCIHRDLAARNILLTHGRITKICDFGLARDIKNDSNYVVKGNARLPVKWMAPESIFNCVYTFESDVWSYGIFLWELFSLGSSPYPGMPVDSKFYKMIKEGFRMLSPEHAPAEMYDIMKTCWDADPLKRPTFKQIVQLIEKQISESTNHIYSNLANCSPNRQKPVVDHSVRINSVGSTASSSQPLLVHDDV
Protocol: as §1

various enzymes [16] = biological target: various enzymes (Homo sapiens, UniProt Q96D53); settings: compound 1 uM
Protocol: as §1

various enzymes [17] = biological target: various enzymes (Homo sapiens, UniProt Q13557); settings: compound 1 uM
various enzymes (Homo sapiens, UniProt Q13557), sequence (Q13557 whole entry): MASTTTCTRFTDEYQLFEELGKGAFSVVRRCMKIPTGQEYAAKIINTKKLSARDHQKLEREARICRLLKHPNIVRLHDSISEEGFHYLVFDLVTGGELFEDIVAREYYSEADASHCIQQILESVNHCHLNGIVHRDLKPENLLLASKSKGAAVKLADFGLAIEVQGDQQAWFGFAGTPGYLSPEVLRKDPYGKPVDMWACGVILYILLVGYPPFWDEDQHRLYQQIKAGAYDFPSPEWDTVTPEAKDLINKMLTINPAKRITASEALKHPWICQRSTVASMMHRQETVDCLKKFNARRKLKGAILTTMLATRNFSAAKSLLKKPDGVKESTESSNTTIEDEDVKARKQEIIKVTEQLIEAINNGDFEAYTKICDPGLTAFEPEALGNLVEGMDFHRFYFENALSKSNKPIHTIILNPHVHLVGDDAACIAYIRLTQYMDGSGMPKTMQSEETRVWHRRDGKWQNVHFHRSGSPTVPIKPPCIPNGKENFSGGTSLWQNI
Protocol: as §1

various enzymes [18] = biological target: various enzymes (Homo sapiens, UniProt P35916); settings: compound 1 uM
Protocol: as §1

various enzymes [19] = biological target: various enzymes (Homo sapiens, UniProt Q16539); settings: compound 1 uM
various enzymes (Homo sapiens, UniProt Q16539), sequence (Q16539 whole entry): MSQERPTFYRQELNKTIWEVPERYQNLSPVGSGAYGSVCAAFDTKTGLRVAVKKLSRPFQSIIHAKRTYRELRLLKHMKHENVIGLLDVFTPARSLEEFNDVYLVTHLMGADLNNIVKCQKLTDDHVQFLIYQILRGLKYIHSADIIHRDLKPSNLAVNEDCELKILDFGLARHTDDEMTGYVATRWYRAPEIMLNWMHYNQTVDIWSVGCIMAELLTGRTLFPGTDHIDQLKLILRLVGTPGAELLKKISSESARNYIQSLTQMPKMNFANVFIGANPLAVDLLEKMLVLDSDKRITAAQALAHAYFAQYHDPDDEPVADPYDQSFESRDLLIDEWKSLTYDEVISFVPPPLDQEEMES
Protocol: as §1

various enzymes [20] = biological target: various enzymes (Homo sapiens, UniProt P49841); settings: compound 1 uM
Protocol: as §1

various enzymes [21] = biological target: various enzymes (Homo sapiens, UniProt P04626); settings: compound 1 uM
Protocol: as §1

various enzymes [22] = biological target: various enzymes (Homo sapiens, UniProt Q13976); settings: compound 1 uM
Protocol: as §1

various enzymes [23] = biological target: various enzymes (Homo sapiens, UniProt O60674); settings: compound 1 uM
various enzymes (Homo sapiens, UniProt O60674), sequence (O60674 whole entry): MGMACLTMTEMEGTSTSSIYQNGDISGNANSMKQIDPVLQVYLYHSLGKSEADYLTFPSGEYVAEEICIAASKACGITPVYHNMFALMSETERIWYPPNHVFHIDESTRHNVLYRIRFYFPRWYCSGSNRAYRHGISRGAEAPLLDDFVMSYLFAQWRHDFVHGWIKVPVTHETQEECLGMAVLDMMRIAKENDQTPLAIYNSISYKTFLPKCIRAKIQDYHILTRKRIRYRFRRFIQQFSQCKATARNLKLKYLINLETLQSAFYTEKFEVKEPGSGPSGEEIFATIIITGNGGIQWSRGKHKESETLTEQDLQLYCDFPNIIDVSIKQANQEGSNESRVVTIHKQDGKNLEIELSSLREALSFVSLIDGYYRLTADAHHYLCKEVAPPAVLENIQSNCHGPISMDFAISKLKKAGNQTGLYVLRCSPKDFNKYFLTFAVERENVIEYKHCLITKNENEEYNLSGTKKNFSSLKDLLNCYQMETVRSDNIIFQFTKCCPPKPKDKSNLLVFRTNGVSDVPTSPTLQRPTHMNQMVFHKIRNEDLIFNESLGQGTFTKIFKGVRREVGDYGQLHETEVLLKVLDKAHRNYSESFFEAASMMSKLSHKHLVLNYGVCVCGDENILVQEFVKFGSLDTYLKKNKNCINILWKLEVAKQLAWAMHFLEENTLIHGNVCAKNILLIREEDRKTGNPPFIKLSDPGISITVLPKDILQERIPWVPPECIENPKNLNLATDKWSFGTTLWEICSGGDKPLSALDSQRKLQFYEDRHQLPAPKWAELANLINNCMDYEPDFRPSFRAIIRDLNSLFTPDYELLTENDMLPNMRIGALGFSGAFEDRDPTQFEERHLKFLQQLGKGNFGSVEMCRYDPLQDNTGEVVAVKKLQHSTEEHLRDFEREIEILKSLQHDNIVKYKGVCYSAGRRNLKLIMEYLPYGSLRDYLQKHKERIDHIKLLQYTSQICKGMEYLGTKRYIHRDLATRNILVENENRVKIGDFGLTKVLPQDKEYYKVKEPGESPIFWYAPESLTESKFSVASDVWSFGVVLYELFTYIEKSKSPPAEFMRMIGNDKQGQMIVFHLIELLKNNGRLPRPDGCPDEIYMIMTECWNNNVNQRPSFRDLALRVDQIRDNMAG
Protocol: as §1

various enzymes [24] = biological target: various enzymes (Homo sapiens, UniProt Q2M2I8); settings: compound 1 uM
Protocol: as §1

various enzymes [25] = biological target: T3, various enzymes (Homo sapiens, UniProt Q6PHR2); settings: compound 1 uM
T3 sequence (Q6PHR2 1-472): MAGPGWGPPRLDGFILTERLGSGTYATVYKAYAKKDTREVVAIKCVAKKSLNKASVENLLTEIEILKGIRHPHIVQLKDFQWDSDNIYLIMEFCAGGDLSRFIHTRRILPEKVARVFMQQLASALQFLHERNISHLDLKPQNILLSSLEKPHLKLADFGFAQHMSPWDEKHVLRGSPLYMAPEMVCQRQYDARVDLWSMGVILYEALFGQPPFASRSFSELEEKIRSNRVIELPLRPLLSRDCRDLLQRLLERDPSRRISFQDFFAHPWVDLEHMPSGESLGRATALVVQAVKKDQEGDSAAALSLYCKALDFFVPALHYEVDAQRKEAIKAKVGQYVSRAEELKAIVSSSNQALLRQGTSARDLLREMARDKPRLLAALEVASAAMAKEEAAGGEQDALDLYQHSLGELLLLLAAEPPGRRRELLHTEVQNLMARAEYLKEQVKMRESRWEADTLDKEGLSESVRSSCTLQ
Protocol: as §1

various enzymes [26] = biological target: various enzymes (Homo sapiens, UniProt Q8IYT8); settings: compound 1 uM
Protocol: as §1

various enzymes [27] = biological target: various enzymes (Homo sapiens, UniProt Q9HBH9); settings: compound 1 uM
various enzymes (Homo sapiens, UniProt Q9HBH9), sequence (Q9HBH9 whole entry): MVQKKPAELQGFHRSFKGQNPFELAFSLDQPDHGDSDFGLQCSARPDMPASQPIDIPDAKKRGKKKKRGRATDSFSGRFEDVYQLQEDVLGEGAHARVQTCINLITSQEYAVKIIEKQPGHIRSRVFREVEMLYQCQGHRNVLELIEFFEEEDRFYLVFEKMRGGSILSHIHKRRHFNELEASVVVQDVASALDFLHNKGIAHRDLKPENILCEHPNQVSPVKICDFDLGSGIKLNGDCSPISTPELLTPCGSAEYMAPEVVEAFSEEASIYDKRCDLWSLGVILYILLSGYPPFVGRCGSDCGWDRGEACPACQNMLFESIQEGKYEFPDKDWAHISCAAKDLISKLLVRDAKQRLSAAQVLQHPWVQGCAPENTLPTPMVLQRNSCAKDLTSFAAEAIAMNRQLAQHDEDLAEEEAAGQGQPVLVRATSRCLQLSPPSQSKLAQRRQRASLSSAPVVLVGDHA
Protocol: as §1

Row | Structure (SMILES) | Ambit profiling: IRAK3 (various enzymes [1]) | Ambit profiling: MLCK (various enzymes [2]) | Ambit profiling: PLK3 (various enzymes [3]) | Ambit profiling: PHKG2 (various enzymes [4]) | Ambit profiling: NIK (various enzymes [5]) | Ambit profiling: GRK2 (various enzymes [6]) | Ambit profiling: PIM1 (various enzymes [7]) | Ambit profiling: TGFBR1 (various enzymes [9]) | Ambit profiling: PIP5K2C (various enzymes [10]) | Ambit profiling: MARK4 (various enzymes [12]) | Ambit profiling: HIPK1 (various enzymes [13]) | Ambit profiling: CLK3 (various enzymes [14]) | Ambit profiling: KIT (various enzymes [15]) | Ambit profiling: KIT-autoinhibited (various enzymes [15]) | Ambit profiling: ADCK4 (various enzymes [16]) | Ambit profiling: CAMK2D (various enzymes [17]) | Ambit profiling: FLT4 (various enzymes [18]) | Ambit profiling: p38-alpha (various enzymes [19]) | Ambit profiling: GSK3B (various enzymes [20]) | Ambit profiling: ERBB2 (various enzymes [21]) | further results
1 | COc1c2c(nn1C)CN(C(C)C)C(=O)CCCn1cc(c(C(F)(F)F)n1)-c1c[nH]c3ncc-2cc13 [Compound 50, (Z)-5-isopropyl-35-methoxy-31-methyl-13-(trifluoromethyl)-11H,21H,31H-5-aza-2(3,5)-pyrrolo[2,3-b]pyridina-1(4,1),3(4,3)-dipyrazolacyclononaphan-6-one] | 15 | 82 | 77 | 53 | 86 | 87 | 77 | 36 | 20 | 55 | 13 | 26 | 2.9 | 76 | 7.7 | 20 | 0.1 | 81 | 90 | 86 | Ambit profiling: FLT3(ITD, D835V) (various enzymes [8]): 0.55; Ambit profiling: EGFR(L858R) (various enzymes [11]): 18; Ambit profiling: PRKG1 (various enzymes [22]): 100; Ambit profiling: JAK2(JH1domain-catalytic) (various enzymes [23]): 29; Ambit profiling: AAK1 (various enzymes [24]): 43; Ambit profiling: ULK3 (various enzymes [25]): 73; Ambit profiling: ULK2 (various enzymes [26]): 96; Ambit profiling: MKNK2 (various enzymes [27]): 53
2 | CC(C)N1Cc2nn(C)cc2-c2cnc3[nH]cc(c3c2)-c2cn(nc2C(F)(F)F)CCCC1=O [Compound 45, (Z)-5-isopropyl-31-methyl-13-(trifluoromethyl)-11H,21H,31H-5-aza-2(3,5)-pyrrolo[2,3-b]pyridina-1(4,1),3(4,3)-dipyrazolacyclononaphan-6-one] | 2.6 | 99 | 95 | 44 | 94 | 100 | 75 | 87 | 100 | 28 | 6.5 | 33 | 6.5 | 69 | 3.9 | 15 | 0.1 | 86 | 24 | 100 | Ambit profiling: FLT3(ITD, D835V) (various enzymes [8]; compound 1 uM): 0; Ambit profiling: EGFR(L858R) (various enzymes [11]; compound 1 uM): 25; Ambit profiling: PRKG1 (various enzymes [22]): 100; Ambit profiling: JAK2(JH1domain-catalytic) (various enzymes [23]): 4.9; Ambit profiling: AAK1 (various enzymes [24]): 40; Ambit profiling: ULK3 (various enzymes [25]): 30; Ambit profiling: ULK2 (various enzymes [26]): 56; Ambit profiling: MKNK2 (various enzymes [27]): 100
